Source: patent US11572369B2, “Bicyclic pyridine compositions and methods of using the same for cancer therapy” (UNIVERSITY OF SOUTH CAROLINA, priority 2019, dated 2023)

Key:
Assay in all cases: KINOMEscan
Format in all cases: binding
Settings in all cases: 2000 nM
CAMK2A = molecular target: T1, CAMK2A (Homo sapiens, UniProt Q9UQM7)
T1 construct: DNA label (qPCR read-out); purchased KINOMEscan (ScanMAX panel service)

PRKR = molecular target: T2, PRKR (Homo sapiens, UniProt P19525)
T2 construct: purchased DiscoveRx (KINOMEscan scanMAX panel)

LIMK1 = molecular target: T3, LIMK1 (Homo sapiens, UniProt P53667)
T3 construct: purchased KINOMEscan (DiscoveRx) panel service

CAMK4 = molecular target: T4, CAMK4 (Homo sapiens, UniProt Q16566)
T4 construct: DNA label (qPCR read-out); purchased KINOMEscan (ScanMAX panel service)

SRMS = molecular target: T5, SRMS (Homo sapiens, UniProt Q9H3Y6)
T5 construct: purchased KINOMEscan (DiscoveRx)

SRPK2 = molecular target: T6, SRPK2 (Homo sapiens, UniProt P78362)
T6 construct: purchased KINOMEscan (DiscoveRx)

TAOK1 = molecular target: T7, TAOK1 (Homo sapiens, UniProt Q7L7X3)
T7 construct: DNA label (for qPCR read-out); purchased DiscoveRx (KINOMEscan scanMAX panel, contract assay)

HIPK2 = molecular target: T8, HIPK2 (Homo sapiens, UniProt Q9H2X6)
T8 construct: DNA label (for qPCR read-out); purchased DiscoveRx (KINOMEscan scanMAX panel, contract assay)

SRC = molecular target: T9, SRC (Homo sapiens, UniProt P12931)
T9 construct: purchased KINOMEscan (DiscoveRx)

p38-beta = molecular target: T10, p38-beta (Homo sapiens, UniProt Q15759)
T10 construct: purchased DiscoverX (KINOMEscan service)

CAMK1 = molecular target: T11, CAMK1 (Homo sapiens, UniProt Q14012)
T11 construct: DNA label (qPCR read-out); purchased KINOMEscan (ScanMAX panel service)

MST4 = molecular target: T12, MST4 (Homo sapiens, UniProt Q9P289)
T12 construct: DNA label (for qPCR read-out); purchased KINOMEscan scanMAX panel (DiscoveRx)

KIT-autoinhibited = molecular target: T13, KIT-autoinhibited (Homo sapiens, UniProt P10721)
T13 construct: purchased KINOMEscan (DiscoveRx) panel service

HCK = molecular target: T14, HCK (Homo sapiens, UniProt P08631)
T14 construct: DNA label (for qPCR read-out); purchased DiscoveRx (KINOMEscan scanMAX panel, contract assay)

[1] = molecular target: T15, TYK2(JH1domain-catalytic) (Homo sapiens, UniProt P29597)
T15 construct: JH1domain; DNA label (for qPCR read-out); purchased DiscoveRx (KINOMEscan scanMAX panel)

[2] = molecular target: ABL1(Q252H)-nonphosphorylated (Homo sapiens, UniProt P00519, Q252H)
FLT3(N841I) = molecular target: T16, FLT3(N841I) (Homo sapiens, UniProt P36888, N841I)
T16 construct: purchased KINOMEscan (DiscoveRx)

CAMK2D = molecular target: T17, CAMK2D (Homo sapiens, UniProt Q13557)
T17 construct: DNA label (qPCR read-out); purchased KINOMEscan (ScanMAX panel service)

DRAK2 = molecular target: T18, DRAK2 (Homo sapiens, UniProt O94768)
T18 construct: DNA label (qPCR read-out); purchased KINOMEscan (DiscoveRx) panel

STK36 = molecular target: T19, STK36 (Homo sapiens, UniProt Q9NRP7)
T19 construct: DNA label (for qPCR read-out); purchased DiscoveRx (KINOMEscan scanMAX panel, contract assay)

NEK3 = molecular target: T20, NEK3 (Homo sapiens, UniProt P51956)
T20 construct: DNA label (qPCR read-out); purchased KINOMEscan (ScanMAX panel service)

CLK2 = molecular target: T21, CLK2 (Homo sapiens, UniProt P49760)
T21 construct: DNA label (for qPCR read-out); purchased DiscoveRx (KINOMEscan scanMAX service)

[3] = molecular target: ABL1(F317I)-phosphorylated (Homo sapiens, UniProt P00519, F317I)
[4] = molecular target: ABL1(T315I)-nonphosphorylated (Homo sapiens, UniProt P00519, T315I)
TNK2 = molecular target: T22, TNK2 (Homo sapiens, UniProt Q07912)
T22 construct: DNA label (qPCR read-out); purchased KINOMEscan (DiscoveRx) ScanMAX panel

MLK3 = molecular target: T23, MLK3 (Homo sapiens, UniProt Q16584)
T23 construct: DNA label (qPCR read-out); purchased KINOMEscan scanMAX panel (DiscoveRx)

CLK3 = molecular target: T24, CLK3 (Homo sapiens, UniProt P49761)
T24 construct: DNA label (for qPCR read-out); purchased DiscoveRx (KINOMEscan scanMAX service)

SLK = molecular target: T25, SLK (Homo sapiens, UniProt Q9H2G2)
T25 construct: purchased KINOMEscan (DiscoveRx)

STK16 = molecular target: T26, STK16 (Homo sapiens, UniProt O75716)
T26 construct: DNA label (for qPCR read-out); purchased DiscoveRx (KINOMEscan scanMAX panel, contract assay)

HIPK1 = molecular target: T27, HIPK1 (Homo sapiens, UniProt Q86Z02)
T27 construct: DNA label (for qPCR read-out); purchased DiscoveRx (KINOMEscan scanMAX panel, contract assay)

EGFR(G719C) = molecular target: T28, EGFR(G719C) (Homo sapiens, UniProt P00533, G719C)
T28 construct: purchased DiscoveRx (KINOMEscan scanMAX panel)

MARK1 = MARK1 (Homo sapiens, UniProt Q9P0L2)
FLT1 = molecular target: T29, FLT1 (Homo sapiens, UniProt P17948)
T29 construct: purchased DiscoveRx (KINOMEscan scanMAX panel)

BMX = molecular target: T30, BMX (Homo sapiens, UniProt P51813)
T30 construct: DNA label (for qPCR read-out); purchased KINOMEscan scanMAX panel (DiscoveRx)

CHEK1 = molecular target: T31, CHEK1 (Homo sapiens, UniProt O14757)
T31 construct: DNA label (for qPCR read-out); purchased DiscoveRx (KINOMEscan scanMAX service)

CIT = molecular target: T32, CIT (Homo sapiens, UniProt O14578)
T32 construct: DNA label (for qPCR read-out); purchased DiscoveRx (KINOMEscan scanMAX service)

LCK = molecular target: T33, LCK (Homo sapiens, UniProt P06239)
T33 construct: purchased KINOMEscan (DiscoveRx) panel service

T5 sequence (Q9H3Y6 whole entry): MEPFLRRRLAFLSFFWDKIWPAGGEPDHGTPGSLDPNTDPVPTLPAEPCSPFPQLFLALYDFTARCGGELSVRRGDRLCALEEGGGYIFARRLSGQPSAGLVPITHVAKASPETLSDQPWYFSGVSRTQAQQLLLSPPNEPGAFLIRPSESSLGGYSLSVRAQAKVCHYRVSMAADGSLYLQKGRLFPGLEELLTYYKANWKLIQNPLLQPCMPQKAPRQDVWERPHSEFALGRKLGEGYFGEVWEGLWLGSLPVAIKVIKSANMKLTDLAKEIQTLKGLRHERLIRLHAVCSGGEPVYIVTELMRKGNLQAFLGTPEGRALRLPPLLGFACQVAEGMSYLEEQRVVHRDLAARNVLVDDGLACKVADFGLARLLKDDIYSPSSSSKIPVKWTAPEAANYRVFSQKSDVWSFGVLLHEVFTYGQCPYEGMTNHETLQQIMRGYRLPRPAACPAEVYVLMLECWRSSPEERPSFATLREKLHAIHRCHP
T27 sequence (Q86Z02 whole entry): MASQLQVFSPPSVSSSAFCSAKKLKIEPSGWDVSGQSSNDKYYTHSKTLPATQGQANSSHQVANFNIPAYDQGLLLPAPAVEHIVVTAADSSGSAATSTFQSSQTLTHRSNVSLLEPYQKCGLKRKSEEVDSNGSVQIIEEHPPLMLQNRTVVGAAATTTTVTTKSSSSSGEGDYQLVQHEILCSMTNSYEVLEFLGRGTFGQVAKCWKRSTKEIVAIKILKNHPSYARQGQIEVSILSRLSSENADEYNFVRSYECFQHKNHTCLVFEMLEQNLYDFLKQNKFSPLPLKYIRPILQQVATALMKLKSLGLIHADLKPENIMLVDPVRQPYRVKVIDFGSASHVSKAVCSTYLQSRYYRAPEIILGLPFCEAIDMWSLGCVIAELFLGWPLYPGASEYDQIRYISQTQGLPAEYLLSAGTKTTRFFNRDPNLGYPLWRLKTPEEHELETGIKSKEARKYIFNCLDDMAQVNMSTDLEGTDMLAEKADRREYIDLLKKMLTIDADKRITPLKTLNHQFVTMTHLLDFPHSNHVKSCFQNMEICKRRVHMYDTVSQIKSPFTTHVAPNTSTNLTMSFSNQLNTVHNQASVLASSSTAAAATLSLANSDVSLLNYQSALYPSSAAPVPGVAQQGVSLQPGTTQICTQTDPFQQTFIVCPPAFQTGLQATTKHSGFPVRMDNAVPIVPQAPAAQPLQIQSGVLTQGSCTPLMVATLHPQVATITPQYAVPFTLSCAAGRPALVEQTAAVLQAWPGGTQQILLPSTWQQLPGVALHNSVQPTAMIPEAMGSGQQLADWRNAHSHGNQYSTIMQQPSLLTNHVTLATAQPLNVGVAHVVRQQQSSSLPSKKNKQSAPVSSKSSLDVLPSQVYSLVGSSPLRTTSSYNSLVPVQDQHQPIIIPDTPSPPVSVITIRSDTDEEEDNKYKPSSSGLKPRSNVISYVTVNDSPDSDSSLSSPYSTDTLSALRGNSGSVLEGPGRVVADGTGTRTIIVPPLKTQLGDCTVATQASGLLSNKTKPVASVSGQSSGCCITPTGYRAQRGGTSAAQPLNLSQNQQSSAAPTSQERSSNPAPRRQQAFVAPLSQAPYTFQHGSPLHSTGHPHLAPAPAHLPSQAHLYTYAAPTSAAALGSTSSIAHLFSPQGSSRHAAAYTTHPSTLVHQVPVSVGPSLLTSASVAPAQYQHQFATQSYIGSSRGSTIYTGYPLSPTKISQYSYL
T10 sequence (Q15759 whole entry): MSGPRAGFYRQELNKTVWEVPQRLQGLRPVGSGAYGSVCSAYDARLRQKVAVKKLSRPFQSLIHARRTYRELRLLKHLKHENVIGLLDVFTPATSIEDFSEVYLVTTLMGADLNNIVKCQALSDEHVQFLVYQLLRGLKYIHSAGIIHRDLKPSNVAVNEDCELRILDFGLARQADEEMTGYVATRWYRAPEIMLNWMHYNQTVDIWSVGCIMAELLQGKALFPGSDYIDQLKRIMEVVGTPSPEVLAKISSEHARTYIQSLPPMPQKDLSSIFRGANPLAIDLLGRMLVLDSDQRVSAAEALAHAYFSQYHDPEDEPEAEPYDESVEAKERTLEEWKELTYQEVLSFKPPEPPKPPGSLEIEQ
T13 sequence (P10721 544-976 limits assumed): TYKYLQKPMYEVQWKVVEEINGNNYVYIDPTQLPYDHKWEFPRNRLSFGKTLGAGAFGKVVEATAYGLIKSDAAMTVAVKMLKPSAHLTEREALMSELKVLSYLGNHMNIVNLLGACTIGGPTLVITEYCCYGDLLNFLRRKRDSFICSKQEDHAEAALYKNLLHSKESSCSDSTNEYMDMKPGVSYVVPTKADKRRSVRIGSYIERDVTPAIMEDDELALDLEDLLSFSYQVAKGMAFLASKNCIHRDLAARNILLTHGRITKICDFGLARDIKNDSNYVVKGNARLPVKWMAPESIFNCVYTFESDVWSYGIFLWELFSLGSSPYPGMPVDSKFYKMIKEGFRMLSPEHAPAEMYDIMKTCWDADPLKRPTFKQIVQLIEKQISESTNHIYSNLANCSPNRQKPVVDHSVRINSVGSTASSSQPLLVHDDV
T23 sequence (Q16584 whole entry): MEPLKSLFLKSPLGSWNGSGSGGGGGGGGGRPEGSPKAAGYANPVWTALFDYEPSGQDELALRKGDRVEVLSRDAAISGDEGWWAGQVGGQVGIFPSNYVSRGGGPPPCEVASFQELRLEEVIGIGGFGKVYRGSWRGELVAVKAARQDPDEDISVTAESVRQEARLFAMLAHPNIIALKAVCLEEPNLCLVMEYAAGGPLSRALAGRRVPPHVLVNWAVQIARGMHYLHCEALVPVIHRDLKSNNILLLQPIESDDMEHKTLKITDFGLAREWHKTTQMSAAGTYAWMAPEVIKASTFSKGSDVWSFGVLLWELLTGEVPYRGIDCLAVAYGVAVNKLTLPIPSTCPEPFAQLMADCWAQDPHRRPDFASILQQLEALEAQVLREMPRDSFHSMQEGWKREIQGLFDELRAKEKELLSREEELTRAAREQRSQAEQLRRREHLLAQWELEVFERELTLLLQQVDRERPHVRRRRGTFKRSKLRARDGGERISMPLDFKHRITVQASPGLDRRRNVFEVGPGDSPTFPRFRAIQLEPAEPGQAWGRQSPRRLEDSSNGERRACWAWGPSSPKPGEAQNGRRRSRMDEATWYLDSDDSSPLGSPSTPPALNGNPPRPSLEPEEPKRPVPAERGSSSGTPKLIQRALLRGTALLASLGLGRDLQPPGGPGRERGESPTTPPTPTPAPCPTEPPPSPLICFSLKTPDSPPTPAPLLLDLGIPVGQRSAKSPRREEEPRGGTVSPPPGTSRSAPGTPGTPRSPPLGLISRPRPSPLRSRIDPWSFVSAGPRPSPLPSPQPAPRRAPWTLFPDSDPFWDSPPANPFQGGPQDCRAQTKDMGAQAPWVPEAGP
T6 sequence (P78362 whole entry): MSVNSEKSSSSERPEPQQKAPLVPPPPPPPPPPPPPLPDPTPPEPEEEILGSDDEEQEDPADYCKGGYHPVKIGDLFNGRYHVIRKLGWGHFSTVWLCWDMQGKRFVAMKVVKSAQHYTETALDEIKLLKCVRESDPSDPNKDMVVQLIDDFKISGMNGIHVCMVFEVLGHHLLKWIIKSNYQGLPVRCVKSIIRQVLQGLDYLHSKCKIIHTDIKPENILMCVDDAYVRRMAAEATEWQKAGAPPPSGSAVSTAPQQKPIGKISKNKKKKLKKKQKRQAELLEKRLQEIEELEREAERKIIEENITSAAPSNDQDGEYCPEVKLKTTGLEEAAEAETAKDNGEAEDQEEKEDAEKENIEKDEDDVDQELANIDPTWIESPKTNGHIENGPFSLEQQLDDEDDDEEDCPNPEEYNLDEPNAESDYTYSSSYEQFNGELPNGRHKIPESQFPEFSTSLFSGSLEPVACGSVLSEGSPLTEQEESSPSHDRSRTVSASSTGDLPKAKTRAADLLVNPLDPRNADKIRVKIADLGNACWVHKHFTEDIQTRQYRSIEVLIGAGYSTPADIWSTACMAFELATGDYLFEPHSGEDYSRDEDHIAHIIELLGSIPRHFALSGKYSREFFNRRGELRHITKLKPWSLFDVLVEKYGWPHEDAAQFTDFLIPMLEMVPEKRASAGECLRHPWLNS
T4 sequence (Q16566 whole entry): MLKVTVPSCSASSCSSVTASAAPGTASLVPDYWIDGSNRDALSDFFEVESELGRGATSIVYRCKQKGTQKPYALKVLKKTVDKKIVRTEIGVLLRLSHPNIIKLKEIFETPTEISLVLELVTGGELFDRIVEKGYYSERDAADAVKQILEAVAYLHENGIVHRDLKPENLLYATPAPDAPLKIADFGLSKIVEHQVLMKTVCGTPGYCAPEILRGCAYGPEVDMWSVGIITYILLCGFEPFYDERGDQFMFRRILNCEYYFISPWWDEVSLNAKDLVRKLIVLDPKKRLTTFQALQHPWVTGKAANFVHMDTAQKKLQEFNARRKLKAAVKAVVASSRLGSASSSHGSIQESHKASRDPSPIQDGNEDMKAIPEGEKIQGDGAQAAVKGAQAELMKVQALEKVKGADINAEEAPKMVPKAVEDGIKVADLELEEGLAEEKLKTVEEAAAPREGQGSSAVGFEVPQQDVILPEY
T26 sequence (O75716 whole entry): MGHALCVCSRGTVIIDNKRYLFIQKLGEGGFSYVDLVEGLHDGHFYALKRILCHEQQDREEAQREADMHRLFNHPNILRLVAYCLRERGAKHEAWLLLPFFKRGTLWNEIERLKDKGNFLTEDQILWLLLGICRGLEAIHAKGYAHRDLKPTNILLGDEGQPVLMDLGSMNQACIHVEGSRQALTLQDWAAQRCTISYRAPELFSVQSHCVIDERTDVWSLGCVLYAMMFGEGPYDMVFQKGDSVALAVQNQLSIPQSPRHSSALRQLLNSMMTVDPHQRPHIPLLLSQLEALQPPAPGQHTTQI

| Structure (SMILES) | % Ctrl (CAMK2A) [% Ctrl] | % Ctrl (PRKR) [% Ctrl] | % Ctrl (LIMK1) [% Ctrl] | % Ctrl (CAMK4) [% Ctrl] | % Ctrl (SRMS) [% Ctrl] | % Ctrl (SRPK2) [% Ctrl] | % Ctrl (TAOK1) [% Ctrl] | % Ctrl (HIPK2) [% Ctrl] | % Ctrl (SRC) [% Ctrl] | % Ctrl (p38-beta) [% Ctrl] | % Ctrl (CAMK1) [% Ctrl] | % Ctrl (MST4) [% Ctrl] | % Ctrl (KIT-autoinhibited) [% Ctrl] | % Ctrl (HCK) [% Ctrl] | % Ctrl [1] [% Ctrl] | % Ctrl [2] [% Ctrl] | % Ctrl (FLT3(N841I)) [% Ctrl] | % Ctrl (CAMK2D) [% Ctrl] | % Ctrl (DRAK2) [% Ctrl] | % Ctrl (STK36) [% Ctrl] | other results |
| --- | --- | --- | --- | --- | --- | --- | --- | --- | --- | --- | --- | --- | --- | --- | --- | --- | --- | --- | --- | --- | --- |
| [2H]C([2H])([2H])N(C(=O)c1ccc(N2CCCN(c3ccnc4sc(C(N)=O)c(N)c34)CC2)cc1)C([2H])([2H])[2H] [15u_D6, 3-amino-4-(4-(4-(bis(methyl-d3)carbamoyl)phenyl)-1,4-diazepan-1-yl)thieno[2,3-b]pyridine-2-carboxamide] | 100 | 100 | 100 | 79 | 93 | 100 | 73 | 81 | 96 | 97 | 95 | 89 | 90 | 96 | 82 | 83 | 86 | 92 | 87 | 100 | % Ctrl (NEK3): 76 % Ctrl; % Ctrl (CLK2): 83 % Ctrl; % Ctrl [3]: 84 % Ctrl; % Ctrl [4]: 85 % Ctrl; % Ctrl (TNK2): 100 % Ctrl; % Ctrl (MLK3): 100 % Ctrl; % Ctrl (CLK3): 95 % Ctrl; % Ctrl (SLK): 54 % Ctrl; % Ctrl (STK16): 87 % Ctrl; % Ctrl (HIPK1): 71 % Ctrl; % Ctrl (EGFR(G719C)): 100 % Ctrl; % Ctrl (MARK1): 100 % Ctrl; % Ctrl (FLT1): 100 % Ctrl; % Ctrl (BMX): 100 % Ctrl; % Ctrl (CHEK1): 100 % Ctrl; % Ctrl (CIT): 65 % Ctrl; % Ctrl (LCK): 100 % Ctrl |
| CN(C)C(=O)c1ccc(N2CCCN(c3ccnc4sc(C(N)=O)c(N)c34)CC2)cc1 [15u, 3-amino-4-(4-(4-(dimethylcarbamoyl)phenyl)-1,4-diazepan-1-yl)thieno[2,3-b]pyridine-2-carboxamide] | 90 | 100 | 100 | 96 | 81 | 93 | 100 | 100 | 100 | 100 | 83 | 95 | 90 | 96 | 95 | 94 | 90 | 99 | 100 | 100 | % Ctrl (NEK3): 100 % Ctrl; % Ctrl (CLK2): 75 % Ctrl; % Ctrl [3]: 88 % Ctrl; % Ctrl [4]: 100 % Ctrl; % Ctrl (TNK2): 100 % Ctrl; % Ctrl (MLK3): 99 % Ctrl; % Ctrl (CLK3): 100 % Ctrl; % Ctrl (SLK): 56 % Ctrl; % Ctrl (STK16): 80 % Ctrl; % Ctrl (HIPK1): 86 % Ctrl; % Ctrl (EGFR(G719C)): 97 % Ctrl; % Ctrl (MARK1): 100 % Ctrl; % Ctrl (FLT1): 100 % Ctrl; % Ctrl (BMX): 93 % Ctrl; % Ctrl (CHEK1): 94 % Ctrl; % Ctrl (CIT): 51 % Ctrl; % Ctrl (LCK): 91 % Ctrl |
